Test results reported in publication PMC5789975, “Computer-aided Discovery of Peptides that Specifically Attack Bacterial Biofilms” (Scientific Reports, 2018).
≈ marks a conversion by molar mass, not a printed value. Read-outs that look alike come from different tables or passages of the source. Ends that are not written are not given here.

What was measured:
[1] = test system: S. aureus (MRSA SAP0017) biofilms; assay: Static microtitre plate antibiofilm screen (crystal violet); assay type: cell-based, Staphylococcus aureus; conditions: SPOT-synthesized, highest peptide concentration evaluated, compared to untreated controls; listed from most to least active
Procedure: The SPOT-synthesized peptides were evaluated for their antibiofilm activity in vitro as described previously. Briefly, 5 μl of SPOT-peptide stock solution or a corresponding serial dilution was placed in a 96-well polypropylene round bottom plate (Corning Inc. Corning, NY) and 95 μl of a 1/100 dilution of an overnight culture of MRSA SAP0017 in TSB supplemented with 1% glucose was added to each well. The plates were incubated overnight at 37 °C to allow for bacterial growth and biofilm maturation. After 24 hours, the media containing planktonic bacteria was rinsed from each well with distilled water and the remaining biomass was stained with 0.1% crystal violet. The unbound dye was rinsed away and the biofilm bound dye was suspended in 70% ethanol and the absorbance at 595 nm was recorded on a plate reader. Percent biofilm inhibition was calculated by comparison to the amount of crystal violet stain in the untreated controls (defined as 100%) and the sterility control wells (defined as 0%). Results from three separate biological replicates were averaged and outliers were identified using the modified Thompson Tau test and removed from the analysis. The antibiofilm activity of all SPOT-derived peptides was assessed at multiple concentrations (up to five 2-fold dilutions from the stock solution) and the peptide concentration yielding the largest difference in percent inhibition of biofilm growth was used in subsequent analysis.

[2] = test system: planktonic S. aureus MRSA (SAP0017); assay: MIC determination, broth microdilution; assay type: cell-based, Staphylococcus aureus; conditions: for MIC, MHB: Mueller Hinton Broth; for MIC, MHB / MIC, TSB with 1% Glucose: broth microdilution, ~5 × 10^5 CFU/ml, 37 °C overnight, visual read, mean of three biological replicates; for MIC, TSB with 1% Glucose: Tryptic Soy Broth with 1% glucose; for MIC: Staphylococcus aureus, MRSA
Procedure: The MIC of the synthesized peptides was determined in both Mueller Hinton Broth (MHB) and Tryptic Soy Broth (TSB) supplemented with 1% glucose, using the broth microdilution method[21] with slight modifications. Briefly, 10 μl of a 10× concentrated peptide stock solution, vancomycin antibiotic, or vehicle control (water) was placed in the bottom of a well in a 96-well polypropylene round bottom plate (Corning Inc. Corning, NY). A bacterial suspension of S. aureus MRSA (SAP0017, clinical isolate kindly provided by Dr. Tony Chow, Vancouver General Hospital) was prepared from an overnight culture to a final cell density of ~5 × 10^5 CFU/ml and 90 μl of this was added to each well.

Compound	antibiofilm activity of SPOT-synthesized Experimental Validation Set peptides [1]	other results
KKWQLLIKWKLR [compound 11, Experimental Validation Set peptide]	exhibited antibiofilm activity	
IQLKLIWVKRKW [compound 48, Experimental Validation Set peptide]	exhibited antibiofilm activity	
VIKWLLKILRAI-NH2 [compound 3001, QSAR–predicted antibiofilm peptide, >95% purity, C-terminally amidated]	exhibited antibiofilm activity	MIC, MHB [2]: 1 µM; MIC, TSB with 1% Glucose [2]: 2 µM
VQWIQIVVWRKR [compound 6, Experimental Validation Set peptide]	exhibited antibiofilm activity	
WIIRWIKIWLKI [compound 46, Experimental Validation Set peptide]	exhibited antibiofilm activity	
LIVIQLLKKWWK [compound 41, Experimental Validation Set peptide]	exhibited antibiofilm activity	
GLIIKIIKKRLW [compound 26, Experimental Validation Set peptide]	exhibited antibiofilm activity	
IQRWWKVWLKVI-NH2 [compound 3004, QSAR–predicted antibiofilm peptide, >95% purity, C-terminally amidated]	exhibited antibiofilm activity	MIC, MHB [2]: 4 µM; MIC, TSB with 1% Glucose [2]: 16 µM
VLQIKKVLRLLL [compound 17, Experimental Validation Set peptide]	exhibited antibiofilm activity	
LWQLWLKLKLKG [compound 56, Experimental Validation Set peptide]	exhibited antibiofilm activity	
IKWVLRKIVQII [compound 37, Experimental Validation Set peptide]	exhibited antibiofilm activity	
RRQWRGWVRIWL-NH2 [compound 3005, QSAR–predicted antibiofilm peptide, >95% purity, C-terminally amidated]	exhibited antibiofilm activity	MIC, MHB [2]: 4 µM; MIC, TSB with 1% Glucose [2]: 64 µM
RRIIKILLWKLR [compound 10, Experimental Validation Set peptide]	exhibited antibiofilm activity	
VLKIKVKIWVVK-NH2 [compound 3007, QSAR–predicted antibiofilm peptide, >95% purity, C-terminally amidated]	exhibited antibiofilm activity	MIC, MHB [2]: 16 µM; MIC, TSB with 1% Glucose [2]: >64 µM
CN[C@H](CC(C)C)C(=O)N[C@H]1C(=O)N[C@@H](CC(N)=O)C(=O)N[C@H]2C(=O)N[C@H]3C(=O)N[C@H](C(=O)N[C@H](C(=O)O)c4cc(O)cc(O)c4-c4cc3ccc4O)[C@H](O)c3ccc(c(Cl)c3)Oc3cc2cc(c3O[C@@H]2O[C@H](CO)[C@@H](O)[C@H](O)[C@H]2O[C@H]2C[C@](C)(N)[C@H](O)[C@H](C)O2)Oc2ccc(cc2Cl)[C@H]1O [Vancomycin, reference compound]		MIC ([2]; read-out: MIC, MHB): 0.34 µM (≈ 0.493 µg/mL); MIC ([2]; read-out: MIC, TSB with 1% Glucose): 0.68 µM (≈ 0.986 µg/mL)
IWLRLKVVLKRK-NH2 [compound 3006, QSAR–predicted antibiofilm peptide, >95% purity, C-terminally amidated]	exhibited antibiofilm activity	MIC, MHB [2]: 4 µM; MIC, TSB with 1% Glucose [2]: 32 µM
VIKVLIKRWLKL [compound 9, Experimental Validation Set peptide]	exhibited antibiofilm activity	
